Source: patent publication US20100286247A1, “Methods of Protection from Oxidative Stress” (Trustees of Boston University, priority 2005, published 2010)
Entries after “also recorded” stand apart in the source; their conditions may differ. {P} = phosphate

Columns and labels:
[1] = system: intracellular ROS in normal newborn human dermal fibroblasts; assay: Dichlorofluorescein diacetate (DCF) assay of intracellular ROS, FACScan; format: cell-based; settings: for DCF fluorescence (intracellular ROS) compared to diluent: 100 μM pTT / pCC, 40 μM TO / TOC1 / TOC2
Description: Normal newborn human dermal fibroblasts were cultured from foreskin specimens into DMEM supplemented with 10% CS as described above. Due to the large number of cells needed for time course experiments, and to minimize donor variability, in dichlorofluorescein diacetate FACS experiments cells from three different donors were combined.
Purified lyophilized oligonucleotides were obtained and prepared for cell treatment as described above. All treatments involved a single stimulation with T-oligo, after which cells were harvested at various times without medium changes or addition of more T-oligo. Treatment doses were 100 μM pTT and 40 μM TO except in dose-response experiments; these concentrations were determined in previous experiments to be optimal for measuring DNA damage responses using these T-oligos.^142,150,228
Complementary and scrambled oligonucleotides were chosen for each T-oligo. pAA and pCC were used as controls for pTT, and the complementary 11-base pCTAACCCTAAC (TOC1, SEQ ID NO: 22) and a scrambled sequence pGATCGATCGAT (TOC2, SEQ ID NO: 23) were used as controls for the T-oligo TO.
(§1) H2DCFDA stock solution (1 mg/ml) was thawed and diluted in Hanks' Balanced Salt Solution, 1× liquid without phenol red (GIBCO Invitrogen, Carlsbad, Calif.), to a working concentration of 100 μM immediately before use. H2DCFDA is converted by intracellular esterases to dichlorofiuorescein (DCF). When oxidized by intracellular ROS, it will fluoresce at 530 nm when excited by 480 nm light. […] All work involving DCF was conducted in minimal room light. Peaks on FACScan plots that shift to the right indicate greater fluorescence and increased ROS levels. For NADPH oxidase inhibitor studies using DPI,^237,239 the DPI stock solution was added directly to DCF treatment solution to achieve a final DPI treatment concentration of 50 μM.
Hydrogen peroxide positive controls were used to rule out saturation of the DCF probe in the T-oligo dose response experiments. Fibroblasts were exposed to 1 mM, 5 mM and 10 mM H2O2 solutions in PBS for 15 minutes following DCF incubation for 30 minutes, harvested and analyzed as described above.
The horseradish peroxidase assay data was analyzed by one-way ANOVA. DCF assay FACScan results were analyzed using Cellquest software (Becton-Dickinson, Calif.). All peak positions on x-axis of the fluorescence histogram plot were determined visually (using the software) and recorded as a number. Peak position values were then compared using one-way ANOVA.

NAD(P)H oxidase = assay: DCF assay with NADPH oxidase inhibitor DPI; format: cell-based, human; settings: 50 μM DPI in DCF solution; pTT or TO treated fibroblasts
Description: as §1
Because p53-dependent ROS production in fibroblasts has been attributed to NAD(P)H oxidase activity,^169 a specific NADPH oxidase inhibitor, diphenyliodonium chloride (DPI),^239 was added to the DCF assay medium to determine the role of NADPH oxidases in T-oligo mediated ROS induction.

Compound | DCF fluorescence (intracellular ROS) compared to diluent [1] | other results
pGATCGATCGAT (5' {P}, sugars by position and backbone not given here) [TOC2, reference compound] | not significantly different from each other; also recorded: overlapping with diluent curve | 
OO [H2O2, Hydrogen peroxide, reference compound] |  | DCF peak shift of positive control ([1]; 1 mM H2O2 for 15 minutes): greater shift than any of the T-oligo treatments
pCTAACCCTAAC (5' {P}, sugars by position and backbone not given here) [TOC1, complementary 11-base control oligonucleotide for TO, reference compound] | not significantly different from each other | 
[Cl-].c1ccc([I+]c2ccccc2)cc1 [DPI, diphenyliodonium chloride] |  | effect of DPI on T-oligo-stimulated ROS (DCF fluorescence) (NAD(P)H oxidase): consistently abrogated the increase in ROS stimulated by T-oligos
